This note sets out measurements from ChEMBL document CHEMBL5715956, “Selective Targeting of Bromodomains of the Bromodomain-PHD Fingers Family Impairs Osteoclast Differentiation” (ACS Chem Biol, 2017).

The target in series [1] is T1, Bromodomain-containing protein 1 (Homo sapiens) (UniProt O95696).
T1 sequence (whole entry): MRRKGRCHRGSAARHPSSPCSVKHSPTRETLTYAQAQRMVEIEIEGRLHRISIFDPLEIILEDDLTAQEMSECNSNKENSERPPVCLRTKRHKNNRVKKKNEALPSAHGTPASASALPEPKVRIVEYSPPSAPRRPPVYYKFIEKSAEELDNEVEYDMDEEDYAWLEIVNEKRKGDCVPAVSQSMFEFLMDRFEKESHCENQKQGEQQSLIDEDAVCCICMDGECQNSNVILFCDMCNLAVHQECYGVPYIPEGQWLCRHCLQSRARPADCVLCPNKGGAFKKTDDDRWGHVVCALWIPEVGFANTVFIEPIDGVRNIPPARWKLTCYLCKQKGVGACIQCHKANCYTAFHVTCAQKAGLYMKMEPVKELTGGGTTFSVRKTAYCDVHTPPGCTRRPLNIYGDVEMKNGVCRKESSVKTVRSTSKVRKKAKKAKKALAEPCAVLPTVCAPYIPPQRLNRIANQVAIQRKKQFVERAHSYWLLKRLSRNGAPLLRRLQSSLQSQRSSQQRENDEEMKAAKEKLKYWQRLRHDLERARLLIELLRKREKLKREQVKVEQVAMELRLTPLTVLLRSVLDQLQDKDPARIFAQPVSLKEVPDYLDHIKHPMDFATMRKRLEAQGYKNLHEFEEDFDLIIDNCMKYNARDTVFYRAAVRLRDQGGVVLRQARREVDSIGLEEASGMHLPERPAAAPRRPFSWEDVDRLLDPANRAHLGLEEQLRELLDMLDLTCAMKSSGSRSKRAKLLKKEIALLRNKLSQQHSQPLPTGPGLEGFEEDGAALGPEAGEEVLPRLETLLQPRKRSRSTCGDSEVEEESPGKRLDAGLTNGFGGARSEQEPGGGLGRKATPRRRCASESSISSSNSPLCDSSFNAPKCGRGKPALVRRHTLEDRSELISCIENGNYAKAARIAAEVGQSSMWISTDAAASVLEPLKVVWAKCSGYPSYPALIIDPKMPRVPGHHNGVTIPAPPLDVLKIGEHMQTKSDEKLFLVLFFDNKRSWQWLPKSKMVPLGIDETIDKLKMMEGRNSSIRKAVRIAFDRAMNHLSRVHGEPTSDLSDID
Kind of series: Binding affinity to BRPF2 (unknown origin) assessed as change in entropy at 12 uM by Isothermal titration calorimetry. In general terms: Isothermal titration calorimetry measures the heat released or taken up as one component is titrated into another.

Series [2] deals with Bromodomain-containing protein 4 (Homo sapiens) (UniProt O60885). Kind of series: Binding affinity to BRD4 BD1 (unknown origin) assessed as change in entropy at 14 uM by Isothermal titration calorimetry.
For series [3], the target named is KV channel (voltage-gated potassium channel family) (Homo sapiens, UniProt O43525+O43526+O95259+P16389+P17658+P22001+P22459+P22460+P48547+P51787+P56696+Q03721+Q09470+Q12809+Q14003+Q14721+Q16322+Q6PIU1+Q8NCM2+Q8TAE7+Q8TDN1+Q8TDN2+Q92953+Q96KK3+Q96L42+Q96PR1+Q96RP8+Q9BQ31+Q9H252+Q9H3M0+Q9NR82+Q9NS40+Q9NSA2+Q9NZV8+Q9UIX4+Q9UJ96+Q9UK17+Q9ULD8+Q9ULS6+Q9UQ05). Description: Inhibition of KV channel (unknown origin) at 10 uM relative to control. The class given is protein assay.

The target of series [4] is Beta-1 adrenergic receptor (Homo sapiens) (UniProt P08588). Description: Inhibition of Beta1 (unknown origin) at 10 uM relative to control.
The target in series [5] is Adrenergic receptor alpha-2 (Homo sapiens) (UniProt P08913+P18825+P18089). Kind of series: Inhibition of Alpha 2 receptor (unknown origin) at 10 uM relative to control. Type of series: protein assay.
Series [6] deals with Transcription intermediary factor 1-alpha (Homo sapiens, UniProt O15164).
The target of series [7] is Bromodomain-containing protein 3 (Homo sapiens) (UniProt Q15059). As to conditions: dose 10.0 µM.
The target of series [8] is Bromodomain-containing protein 4 (Homo sapiens) (UniProt O60885). Particulars: dose 10.0 µM.
For series [9], the target named is Nucleosome-remodeling factor subunit BPTF (Homo sapiens) (UniProt Q12830). Particulars: dose 10.0 µM.
Series [10] concerns the target Protein polybromo-1 (Homo sapiens) (UniProt Q86U86). As to conditions: dose 10.0 µM.
Series [11] shares this target. Particulars: dose 10.0 µM. The source holds these as a separate data set.

Protein polybromo-1 (Homo sapiens), sequence (Q86U86 whole entry): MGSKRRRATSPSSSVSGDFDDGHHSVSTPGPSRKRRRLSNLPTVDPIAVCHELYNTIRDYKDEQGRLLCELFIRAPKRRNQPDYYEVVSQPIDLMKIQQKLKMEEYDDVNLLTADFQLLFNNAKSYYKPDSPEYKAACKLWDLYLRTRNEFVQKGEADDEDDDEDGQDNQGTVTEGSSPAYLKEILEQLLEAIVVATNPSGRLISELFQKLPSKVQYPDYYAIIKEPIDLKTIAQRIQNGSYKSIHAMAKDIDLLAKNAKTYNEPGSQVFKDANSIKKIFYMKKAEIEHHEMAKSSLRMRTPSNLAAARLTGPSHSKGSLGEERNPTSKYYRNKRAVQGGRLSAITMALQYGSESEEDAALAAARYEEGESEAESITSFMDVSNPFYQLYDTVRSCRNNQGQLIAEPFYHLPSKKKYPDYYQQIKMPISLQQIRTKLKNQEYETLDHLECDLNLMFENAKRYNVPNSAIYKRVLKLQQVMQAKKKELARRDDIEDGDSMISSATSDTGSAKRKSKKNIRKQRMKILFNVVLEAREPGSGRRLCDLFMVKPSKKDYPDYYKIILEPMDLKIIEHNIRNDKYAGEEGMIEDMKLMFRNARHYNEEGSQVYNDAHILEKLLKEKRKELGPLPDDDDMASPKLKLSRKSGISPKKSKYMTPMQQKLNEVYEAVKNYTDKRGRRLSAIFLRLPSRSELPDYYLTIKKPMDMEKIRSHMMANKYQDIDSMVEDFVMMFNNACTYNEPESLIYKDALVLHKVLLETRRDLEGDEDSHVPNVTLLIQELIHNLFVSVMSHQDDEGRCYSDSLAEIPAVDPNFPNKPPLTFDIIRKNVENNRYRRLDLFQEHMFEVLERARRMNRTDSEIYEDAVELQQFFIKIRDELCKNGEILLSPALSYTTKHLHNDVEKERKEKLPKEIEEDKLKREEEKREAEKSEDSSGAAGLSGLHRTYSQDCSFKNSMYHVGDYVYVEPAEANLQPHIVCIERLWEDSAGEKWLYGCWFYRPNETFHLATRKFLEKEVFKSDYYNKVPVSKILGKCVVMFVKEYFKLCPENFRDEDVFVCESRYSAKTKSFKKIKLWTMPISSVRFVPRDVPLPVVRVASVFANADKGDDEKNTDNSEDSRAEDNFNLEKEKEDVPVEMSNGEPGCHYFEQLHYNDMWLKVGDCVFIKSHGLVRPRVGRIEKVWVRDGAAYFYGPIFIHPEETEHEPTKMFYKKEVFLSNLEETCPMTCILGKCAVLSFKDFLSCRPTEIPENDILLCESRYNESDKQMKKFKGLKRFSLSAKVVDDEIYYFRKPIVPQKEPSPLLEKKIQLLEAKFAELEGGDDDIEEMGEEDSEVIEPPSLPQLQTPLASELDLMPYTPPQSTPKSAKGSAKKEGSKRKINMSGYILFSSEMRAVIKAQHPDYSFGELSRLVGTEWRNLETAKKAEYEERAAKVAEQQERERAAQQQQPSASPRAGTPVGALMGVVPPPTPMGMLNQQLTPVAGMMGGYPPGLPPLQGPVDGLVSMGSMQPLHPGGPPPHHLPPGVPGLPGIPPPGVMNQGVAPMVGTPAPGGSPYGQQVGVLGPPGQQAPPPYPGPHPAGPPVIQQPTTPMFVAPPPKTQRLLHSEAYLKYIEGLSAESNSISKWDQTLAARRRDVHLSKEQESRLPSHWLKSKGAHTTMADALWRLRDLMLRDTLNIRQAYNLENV
Transcription intermediary factor 1-alpha, sequence (O15164 whole entry): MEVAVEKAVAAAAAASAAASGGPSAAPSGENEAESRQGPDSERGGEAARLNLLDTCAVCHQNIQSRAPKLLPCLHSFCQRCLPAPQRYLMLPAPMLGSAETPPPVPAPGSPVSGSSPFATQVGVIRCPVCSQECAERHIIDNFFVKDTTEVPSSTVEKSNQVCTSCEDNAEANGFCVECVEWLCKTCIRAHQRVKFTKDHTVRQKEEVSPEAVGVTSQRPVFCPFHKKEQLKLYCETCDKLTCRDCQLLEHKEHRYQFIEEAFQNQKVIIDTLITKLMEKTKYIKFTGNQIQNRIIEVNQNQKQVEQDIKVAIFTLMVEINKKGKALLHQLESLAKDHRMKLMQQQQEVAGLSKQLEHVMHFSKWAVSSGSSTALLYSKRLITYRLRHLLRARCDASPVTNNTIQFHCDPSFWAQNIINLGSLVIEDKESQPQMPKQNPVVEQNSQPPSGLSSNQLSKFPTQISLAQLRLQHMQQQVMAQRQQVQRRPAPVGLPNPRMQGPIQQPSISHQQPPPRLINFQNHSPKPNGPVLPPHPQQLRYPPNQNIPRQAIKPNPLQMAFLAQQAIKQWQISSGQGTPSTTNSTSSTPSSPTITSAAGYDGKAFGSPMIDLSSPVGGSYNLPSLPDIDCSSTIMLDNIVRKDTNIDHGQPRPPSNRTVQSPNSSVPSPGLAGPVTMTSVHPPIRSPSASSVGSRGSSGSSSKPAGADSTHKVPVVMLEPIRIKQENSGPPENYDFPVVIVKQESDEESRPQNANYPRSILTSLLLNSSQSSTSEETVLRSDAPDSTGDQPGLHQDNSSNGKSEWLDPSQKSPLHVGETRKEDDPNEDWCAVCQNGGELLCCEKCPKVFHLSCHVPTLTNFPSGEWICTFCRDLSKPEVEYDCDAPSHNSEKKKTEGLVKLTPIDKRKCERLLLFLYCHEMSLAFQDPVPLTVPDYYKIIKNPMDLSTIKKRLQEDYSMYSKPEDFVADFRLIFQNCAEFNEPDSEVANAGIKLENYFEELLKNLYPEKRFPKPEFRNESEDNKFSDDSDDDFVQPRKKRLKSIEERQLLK
Bromodomain-containing protein 3 (Homo sapiens), sequence (Q15059 2-726 limits assumed): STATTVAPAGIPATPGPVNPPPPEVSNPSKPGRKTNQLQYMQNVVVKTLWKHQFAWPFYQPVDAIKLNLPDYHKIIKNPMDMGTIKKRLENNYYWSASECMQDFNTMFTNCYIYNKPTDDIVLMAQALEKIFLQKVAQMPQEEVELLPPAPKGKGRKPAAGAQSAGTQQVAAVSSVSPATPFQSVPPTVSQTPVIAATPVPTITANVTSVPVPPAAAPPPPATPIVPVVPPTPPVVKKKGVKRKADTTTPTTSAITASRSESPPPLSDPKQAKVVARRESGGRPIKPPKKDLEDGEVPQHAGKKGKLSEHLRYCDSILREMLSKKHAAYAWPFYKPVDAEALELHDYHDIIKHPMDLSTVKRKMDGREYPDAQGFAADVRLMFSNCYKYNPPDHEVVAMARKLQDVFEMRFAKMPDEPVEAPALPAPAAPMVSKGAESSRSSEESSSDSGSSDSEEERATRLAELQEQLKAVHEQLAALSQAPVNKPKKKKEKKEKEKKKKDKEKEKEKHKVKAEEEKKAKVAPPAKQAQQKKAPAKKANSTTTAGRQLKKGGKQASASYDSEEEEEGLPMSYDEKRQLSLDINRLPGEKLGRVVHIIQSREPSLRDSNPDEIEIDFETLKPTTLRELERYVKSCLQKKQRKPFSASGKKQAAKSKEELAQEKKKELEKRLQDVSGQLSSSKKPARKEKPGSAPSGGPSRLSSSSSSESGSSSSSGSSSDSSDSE
Beta-1 adrenergic receptor (Homo sapiens), sequence (P08588 whole entry, looked up): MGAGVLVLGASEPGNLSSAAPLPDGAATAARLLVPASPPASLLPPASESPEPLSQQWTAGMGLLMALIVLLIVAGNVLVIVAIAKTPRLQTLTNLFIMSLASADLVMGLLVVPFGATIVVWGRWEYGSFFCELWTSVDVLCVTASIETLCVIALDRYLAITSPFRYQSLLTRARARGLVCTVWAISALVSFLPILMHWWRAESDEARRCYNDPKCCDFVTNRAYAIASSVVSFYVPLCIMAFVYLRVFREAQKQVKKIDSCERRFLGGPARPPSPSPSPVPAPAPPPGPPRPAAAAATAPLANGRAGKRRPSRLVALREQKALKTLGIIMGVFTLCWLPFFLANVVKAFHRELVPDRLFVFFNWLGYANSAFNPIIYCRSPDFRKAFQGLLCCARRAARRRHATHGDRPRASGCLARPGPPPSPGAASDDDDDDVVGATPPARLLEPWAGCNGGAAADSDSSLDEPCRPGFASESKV

A word on the inhibition: it is the relative decrease from the control value, in per cent. For orientation: IC50 means the concentration needed to halve the response being measured. Lower therefore signals inhibition by little substance. Usually ΔTm stands for the change in melting temperature against a reference sample. With `COc1cc2c(cc1NS(=O)(=O)c1ccc(Br)cc1C)n(C)c(=O)n2C`, the deltaS in series [1] was -0.004 kcal/mol/K; in series [2] it was 0.001 kcal/mol/K. The inhibition at 10 µM in series [3] is -18%. Further, the values for the inhibition in [4] and in series [5] were 11% and -3%, respectively. The molecule further had an IC50 in series [6] of more than 10 µM. Besides, the ΔTm in series [7] is 1.4 °C; in [8], 0.6 °C; in [9] it was 0.9 °C; in series [10] it was 0.6 °C; in [11], 0.2 °C.
